The results in this text go back to article PMC10447463, “Data-mining unveils structure–property–activity correlation of viral infectivity enhancing self-assembling peptides” (Nature Communications, 2023).

Data set [1] relates to HIV-1 infection of TZM-bl cells. Put plainly: HIV-1 infectivity enhancement assay, β-galactosidase luminescence. It is filed as cell-based. The following applies: for Log10 Inf. rel. to EF-C: log10 of HIV-1 infection of TZM-bl cells relative to EF-C, Fig S15 source data, asymmetric std dev errors.
Data set [2] in a line: Zeta-potential measurement. It is filed as physicochemical. The following applies: zeta potential of peptide; Fig S15 source data. How it is done: 4 µL of 1 mg/mL peptide fibrils solution is added to a 20 µL, 50 µM ThT–solution in PBS. The mixture is incubated for 15 min at RT to allow binding of ThT dye with β–sheet rich structures. For reference PBS (4 µL) was added instead of peptide fibril solution. The samples were placed in black UV Star® 384 microliter well–plates (Greiner bio–one). Fluorescence spectra were recorded on an Infinite® M1000 PRO microplate reader (Tecan) at λem = 488 nm upon excitation at λex = 440 nm with 10 nm bandwidths and multiple reads per well (3×3). Measurements were repeated in triplicates and averaged with standard deviation. […] Zeta-Potential. For the determination of the surface charge of aggregated peptides zeta-potential measurements were conducted with a Zetasizer Nano ZS, Malvern Instruments. Unless stated otherwise the peptides were dissolved from DMSO (10 mg/mL) in PBS (pH 7.4) to concentration of 1 mg/mL and incubated for 1d at RT. Just before the measurement the 60 µL of the peptides were further diluted in 600 µL KCl (aq, 1 mM) in a 1 mL disposable folded capillary cells (DTS–1060, Zetasizer Nano series, Malvern). The zeta potential of the peptides was derived from the electrophoretic mobility based on the Smoluchowski formula. All measurements were averaged over two individually performed experiments and conducted in triplicates for each sample. Aggregate analysis. […] Furthermore, fluorescence microscopy was conducted by staining 1 µL preformed fibrils (1 mg/mL) with 9 µL ThT (50 µM). Brightfield microscopy was performed simultaneously to evaluate aggregation also for non ThT-active fibrils. The measurements were performed on a Leica DMi8 microscope with 10x air objective and equipped with a Leica MC170 HD camera with a filter setting λem = 527/30 nm upon excitation at λex = 480/40 nm) and processed with the Leica LASX software. To quantify size and number of microscopic aggregation of particles > 10 µm^2 at least 3 independently measured images were analyzed via the 3D object counter analysis tool of ImageJ, v 1.53f51. Sum–frequency generation. The SFG experiments were carried out with a femtosecond Ti: Sapphire amplified laser system (Spitfire Ace, Spectra–Physics, 800 nm, 40 fs, 1 kHz) with 5 W output power. We used 2 W to pump an optical parametric amplifier (TOPAS, light conversion) with a non–collinear difference frequency generation stage to generate broadband IR pulses. Another 1 W of the laser output passed through an etalon to generate narrowband visible pulses (10 cm^-1). The incident angles of the visible and IR beams were 36° and 41° with respect to the surface normal, respectively. The visible (13 µJ) and IR (5 µJ) pulses were overlapped spatially and temporally at the sample position. Subsequently, the generated SFG pulse was guided into a spectrograph (Acton SP 300i, Princeton Instruments), and detected with an EMCCD (Newton, Andor Technology). To avoid IR absorption of water vapor, we purged N2 for the measurement. All spectra were collected in the ssp (denoting s-, s- and p-polarized SFG, visible and IR, respectively) polarization combination. The spectra were normalized to the non–resonant signal taken from z–cut quartz after subtracting a background spectrum. […]

[3] abbreviates: infectivity class (low / medium / high) of the peptide in the sequence-pattern analysis, Fig. S22-A4, class limits not given.
The mark [4] stands for this setting: infectivity class (low / medium / high) of each library peptide, main list in c1-c6, same classes repeated in sub-lists of sequences containing the hydrophobicity/charge patterns P+,H0,P+,H0,P0,H0,P0, P+,H0,P0,H0,P0,H0,P0, P+,H0,P0,H0.

On to CKIKQIIRGD [psis22], for which the infectivity result in data set [1] (setting [3]) was “low”. The “Log10 Inf. rel. to EF-C” value in data set [1] is reported as -1.311. Further, the “Zeta-pot. / mV” value in data set [2] came to 13.2 mV.

As to EFEFQF [KB11], the infectivity result in data set [1] (setting [4]) is given as “low”. In data set [1], the “Log10 Inf. rel. to EF-C” value was -2.485. Also, the “Zeta-pot. / mV” value in data set [2] was -24.5 mV.

On to EIEIEIEI [JR12], for which the infectivity entry in data set [1] (setting [4]) was “low”. In addition, the “Log10 Inf. rel. to EF-C” value in data set [1] was -1.748. Besides, the “Zeta-pot. / mV” value in data set [2] was -8.92 mV.

On to EIKIQINM [TM73], for which the infectivity result in data set [1] (setting [4]) and in data set [1] (setting [3]) was “low” throughout. For the same substance, the “Log10 Inf. rel. to EF-C” value in data set [1] was -1.001. In data set [2], the “Zeta-pot. / mV” value is given as -22.33 mV.

In the case of FDPFDPFDP [CN24], in data set [1] (setting [4]), the infectivity entry is listed as “low”. In data set [1], the “Log10 Inf. rel. to EF-C” value was -1.6317. Moreover, the “Zeta-pot. / mV” value in data set [2] is listed as -10.9 mV.

As to FKFDKFKFDK [CN26], the infectivity entry in data set [1] (setting [4]) is recorded as “low”. Besides, the “Log10 Inf. rel. to EF-C” value in data set [1] was -1.334. In addition, in data set [2], the “Zeta-pot. / mV” value was -12.7 mV.

Consider HGDKCHGDKC [CN2], for which, in data set [1] (setting [4]), the infectivity entry is listed as “low”. In data set [1], the “Log10 Inf. rel. to EF-C” value is on record as -1.991. The “Zeta-pot. / mV” value in data set [2] is -11.63 mV.

In the case of HGEHGE [CN6], the infectivity result in data set [1] (setting [4]) is “low”. In addition, in data set [1], the “Log10 Inf. rel. to EF-C” value is on record as -2.193. Also, in data set [2], the “Zeta-pot. / mV” value is reported as -12.6 mV.

In the case of HGEHGEHGE [CN7], in data set [1] (setting [4]), the infectivity entry is “low”. For the same substance, the “Log10 Inf. rel. to EF-C” value in data set [1] is -1.72. In data set [2], the “Zeta-pot. / mV” value was -24.2 mV.

As to HHHHEIEIEIEI [JR9], the infectivity result in data set [1] (setting [4]) is “low”. Besides, the “Log10 Inf. rel. to EF-C” value in data set [1] is -1.534. The “Zeta-pot. / mV” value in data set [2] is reported as -6.91 mV.

For HRRHFRHKITKKK [CN29], the infectivity result in data set [1] (setting [4]) is on record as “low”. Besides, the “Log10 Inf. rel. to EF-C” value in data set [1] is -1.868. For the same substance, the “Zeta-pot. / mV” value in data set [2] is recorded as -9.223 mV.

In the case of IKVAVKIKIQINM [TM74], the infectivity result in data set [1] (setting [4]) is recorded as “medium”. For the same substance, the “Log10 Inf. rel. to EF-C” value in data set [1] is recorded as -0.3046. The “Zeta-pot. / mV” value in data set [2] is on record as 14.5 mV.

As for ILKNLSRSRKIKIQIC [TM116], the infectivity result in data set [1] (setting [4]) is on record as “medium”. Moreover, the “Log10 Inf. rel. to EF-C” value in data set [1] was -0.4741. In addition, the “Zeta-pot. / mV” value in data set [2] was 18 mV.

KFKFEFEF [MGe01]: the infectivity entry in data set [1] (setting [3]) was “low”. In data set [1], the “Log10 Inf. rel. to EF-C” value was -1.547. Besides, in data set [2], the “Zeta-pot. / mV” value was -2.55 mV.

In the case of KIEIQINM [NM6], the infectivity result in data set [1] (setting [3]) is “low”. For the same substance, the “Log10 Inf. rel. to EF-C” value in data set [1] is recorded as -1.458. Further, the “Zeta-pot. / mV” value in data set [2] is reported as -0.35 mV.

Consider KIRGKFEKED [CN30], for which the infectivity result in data set [1] (setting [4]) is listed as “low”. Also, the “Log10 Inf. rel. to EF-C” value in data set [1] was -1.2355. Further, the “Zeta-pot. / mV” value in data set [2] is recorded as -12.7 mV.

On to KKFQKKFQ [CN21], for which the infectivity result in data set [1] (setting [4]) was “low”. Moreover, the “Log10 Inf. rel. to EF-C” value in data set [1] is -1.545. In data set [2], the “Zeta-pot. / mV” value is -9.19 mV.

Turning to KNDKND [CN5], the infectivity result in data set [1] (setting [4]) is “low”. In data set [1], the “Log10 Inf. rel. to EF-C” value is -1.978. In addition, the “Zeta-pot. / mV” value in data set [2] is listed as -15 mV.

For the substance KNERIKNERI [CN3], the infectivity entry in data set [1] (setting [4]) is “low”. Further, the “Log10 Inf. rel. to EF-C” value in data set [1] is given as -1.888. Also, the “Zeta-pot. / mV” value in data set [2] was -16 mV.

Turning to KVKGVGK [CN27], the infectivity result in data set [1] (setting [4]) was “low”. In data set [1], the “Log10 Inf. rel. to EF-C” value was -1.587. Besides, the “Zeta-pot. / mV” value in data set [2] was -12.8 mV.

As to KYKGAIIGNIK [CN19], the infectivity result in data set [1] (setting [4]) is reported as “low”. In addition, the “Log10 Inf. rel. to EF-C” value in data set [1] was -2.508. Moreover, the “Zeta-pot. / mV” value in data set [2] is reported as -9.14 mV.

As for MDQMDQMDQMDQMDQ [CN23], the infectivity entry in data set [1] (setting [4]) is given as “low”. In addition, the “Log10 Inf. rel. to EF-C” value in data set [1] is on record as -2.37. Moreover, the “Zeta-pot. / mV” value in data set [2] was -14.98 mV.

Take MKFM [CN32]: the infectivity result in data set [1] (setting [4]) is “low”. In addition, the “Log10 Inf. rel. to EF-C” value in data set [1] was -1.756. Besides, the “Zeta-pot. / mV” value in data set [2] was -16 mV.

For NMWQKVGTPL [JG7], in data set [1] (setting [4]), the infectivity entry is given as “low”. In data set [1], the “Log10 Inf. rel. to EF-C” value is reported as -1.607. In data set [2], the “Zeta-pot. / mV” value is given as -9.62 mV.
